From patent US10294202B2, “Pyrrolidinones as herbicides” (FMC Corporation, priority 2013, dated 2019)

Columns and labels:
[1] = system: canarygrass; experiment: Test C postemergence herbicide test; format: in vivo, Phalaris minor
Description: (§1) At the same time, plants selected from these crop and weed species and also barley (winter barley, Hordeum vulgare), […]), chickweed (common chickweed, Stellaria media), deadnettle (henbit deadnettle, Lamium amplexicaule), and canarygrass (littleseed canarygrass, Phalaris minor) were planted in pots containing Redi-Earth® planting medium (Scotts Company, 14111 Scottslawn Road, Marysville, Ohio 43041) comprising spaghnum peat moss, vermiculite, wetting agent and starter nutrients and treated with postemergence applications of test chemicals formulated in the same manner. Plants ranged in height from 2 to 18 cm (1- to 4-leaf stage) for postemergence treatments. Treated plants and controls were maintained in a greenhouse for 13 to 15 days, after which time all species were compared to controls and visually evaluated. Plant response ratings, summarized in Table C, are based on a scale of 0 to 100 where 0 is no effect and 100 is complete control. A dash (-) response means no test result.

[2] = system: barley (winter barley); experiment: Test C postemergence herbicide test; format: in vivo, Hordeum vulgare
Description: as §1

[3] = system: cocklebur; experiment: Test E preemergence herbicide test; format: in vivo, Xanthium strumarium; design: key: 0 = no effect, 100 = complete control
Description: Seeds of plant species selected from corn (Zea mays), soybean (Glycine max), velvetleaf (Abutilon theophrasti), lambsquarters (Chenopodium album), wild poinsettia (Euphorbia heterophylla), pigweed, palmer (palmer pigweed, Amaranthus palmeri), waterhemp (common waterhemp, Amaranthus rudis), surinam grass (Brachiaria decumbens), crabgrass, large (large crabgrass, Digitaria sanguinalis), crabgrass, Brazil (Brazilian crabgrass, Digitaria horizontalis), panicum, fall (fall panicum, Panicum dichotomiflorum), foxtail, giant (giant foxtail, Setaria faberii), foxtail, green (green foxtail, Setaria viridis), goosegrass (Eleusine indica), johnsongrass (Sorghum halepense), ragweed (common ragweed, Ambrosia elatior), barnyardgrass (Echinochloa crus-galli), sandbur (southern sandbur, Cenchrus echinatus), arrowleaf […] rhombifolia), ryegrass, Italian (Italian ryegrass, Lolium multiflorum), dayflower, VA (Virginia dayflower, Commelina virginica), field bindweed (Convolvulus arvensis), morningglory (Ipomoea coccinea), nightshade (eastern black nightshade, Solanum ptycanthum), kochia (Kochia scoparia), nutsedge, yellow (yellow nutsedge, Cyperus esculentus), cocklebur (common cocklebur, Xanthium strumarium), smartweed (ladysthumb smartweed, Polygonum Persicaria) and beggarticks (hairy beggarticks, Bidens pilosa), were planted into a silt loam soil and treated preemergence with test chemicals formulated in a non-phytotoxic solvent mixture which included a surfactant. Treated plants and controls were maintained in a greenhouse for 21 days, after which time all species were compared to controls and visually evaluated. Plant response ratings, summarized in Table E, are based on a scale of 0 to 100 where 0 is no effect and 100 is complete control. A dash (-) response means no test result.

[4] = system: redstem; experiment: Test F flood (paddy) test; format: in vivo, Ammannia coccinea; details: 21 d, scale 0-100
Description: Three plastic pots (ca. 16-cm diameter) per rate were partially filled with sterilized Tama silt loam soil comprising a 35:50:15 ratio of sand, silt and clay and 2.6% organic matter. Separate plantings for each of the three pots were as follows. Seeds from the U.S. of monochoria (Monochoria vaginalis), sedge, umbrella (small-flower umbrella sedge, Cyperus difformis), bulrush, […] bulrush, Scirpus juncoides), and […] (purple […] coccinea), were planted into one 16-cm pot for each rate. Seeds from the U.S. of flatsedge, rice (rice flatsedge, Cyperus iria), sprangletop, Brdd. (bearded sprangletop, Leptochloa fascicularis), one stand of 9 or 10 water seeded rice seedlings (Rice, W.S. Jap, Oryza sativa cv. 'Japonica-[…]' or Rice, W.S. Ind, 'Indica'), and two stands of 3 or 4 seedlings of rice, transplanted (transplanted rice, Oryza sativa cv. 'Japonica-[…]') were planted into one 16-cm pot for each rate. Seeds from the U.S. of barnyardgrass (Echinochloa crus-galli), […] (common […], Alisma plantago-aquatica), and watergrass, late (late watergrass, Echinochloa oryzicola) were planted into one 16-cm pot for each rate. Plantings were sequential so that crop and weed species were at the 2.0 to 2.5-leaf stage at time of treatment. Potted plants were grown in a greenhouse with day/night temperature settings of 30/27° C., and supplemental balanced lighting was provided to maintain a 16-h photoperiod. Test pots were maintained in the greenhouse until test completion. At time of treatment, test pots were flooded to 3 cm above the soil surface, treated by application of test compounds directly to the paddy water, and then maintained at that water depth for the duration of the test. Effects of treatments on rice and weeds were visually evaluated by comparison to untreated controls after 21 d. Plant response ratings, summarized in Table F, are based on a scale of 0 to 100 where 0 is no effect and 100 is complete control. A dash (-) response means no test result.

[5] = 31 g ai/ha, scale 0 (no effect) to 100 (complete control)
[6] = 62 g ai/ha, scale 0 to 100 (0 no effect, 100 complete control)
[7] = 125 g ai/ha, scale 0 to 100 (0 no effect, 100 complete control)
[8] = 16 g ai/ha, scale 0 to 100 (0 no effect, 100 complete control)
[9] = 250 g ai/ha, scale 0 to 100 (0 no effect, 100 complete control)

SMILES | Plant response rating, Canarygrass [1, 5] | Plant response rating, Canarygrass [1, 6] | Plant response rating, Canarygrass [1, 7] | Plant response rating, Barley [2, 5] | Plant response rating, Barley [2, 6] | Plant response rating, Barley [2, 7] | Plant response rating, Cocklebur ([3]; 62 g ai/ha) | Plant response rating, Cocklebur ([3]; 125 g ai/ha) | Plant response rating, Cocklebur ([3]; 250 g ai/ha) | Plant response rating, Redstem ([4]; 125 g ai/ha) | Plant response rating, Redstem ([4]; 250 g ai/ha) | Plant response rating, Redstem ([4]; 500 g ai/ha) | Plant response rating, Canarygrass [1, 9] | Plant response rating, Barley [2, 9] | further results
O=C1NCC(c2ccc(F)c(Cl)c2)C1C(=O)Nc1ccccc1F (stereo not shown) [Compound 60] | 0 | 0 | 0 | 0 | 0 | 20 |  |  |  |  |  |  |  |  | 
O=C1NC[C@H](c2cccc(C(F)(F)F)c2)[C@H]1C(=O)Nc1cccc(F)c1F [Compound 206] |  |  |  |  |  |  | 0 | 0 | 0 |  |  |  |  |  | Plant response rating, Cocklebur ([3]; 31 g ai/ha): 0
O=C1NCC(c2cc(F)c(F)c(F)c2)C1C(=O)Nc1cccc(F)c1F (stereo not shown) [Compound 48] | 0 | 0 | 0 | 0 | 0 | 0 |  |  |  |  |  |  |  |  | Plant response rating, Canarygrass [1, 8]: 0; Plant response rating, Barley [2, 8]: 0
O=C1NCC(c2ccc(C(F)(F)F)cc2)C1C(=O)Nc1cccc(F)c1F (stereo not shown) [Compound 80, N-(2,3-difluorophenyl)-2-oxo-4-[4-(trifluoromethyl)phenyl]-3-pyrrolidinecarboxamide] |  |  |  |  |  |  | 0 | 0 | 0 |  |  |  |  |  | Plant response rating, Cocklebur ([3]; 16 g ai/ha): 0
O=C1NCCC1C(=O)N(c1ccc(F)c(F)c1)c1ccccc1F (stereo not shown) [Compound 5, N-(3,4-difluorophenyl)-N-(2-fluorophenyl)-2-oxo-3-pyrrolidinecarboxamide] |  |  |  |  |  |  |  |  |  | 0 | 0 | 40 |  |  | Plant response rating, Redstem ([4]; 1000 g ai/ha): 45; Plant response rating, Redstem ([4]; 2000 g ai/ha): 45
O=C1NCC(c2ccc(F)c(F)c2)C1C(=O)Nc1cccc(F)c1F (stereo not shown) [Compound 17, N-(2,3-difluorophenyl)-4-(3,4-difluorophenyl)-2-oxo-3-pyrrolidinecarboxamide] | 0 | 0 | 0 | 0 | 0 | 0 | 0 | 0 |  | 0 | 0 | 0 | 0 | 0 | Plant response rating, Cocklebur ([3]; 16 g ai/ha): 0; Plant response rating, Cocklebur ([3]; 31 g ai/ha): 0; Plant response rating, Redstem ([4]; 1000 g ai/ha): 35; Plant response rating, Redstem ([4]; 2000 g ai/ha): 40
O=C1NCC(c2ccc(Cl)c(F)c2)C1C(=O)Nc1cccc(F)c1F (stereo not shown) [Compound 52] | 0 | 0 | 0 | 0 | 0 | 0 |  |  |  |  |  |  | 0 | 15 | 
CN1CC(c2ccc(F)c(F)c2)C(C(=O)Nc2cccc(F)c2F)C1=O (stereo not shown) [Compound 303] |  |  |  |  |  |  |  |  |  | 0 | 0 | 30 |  |  | Plant response rating, Redstem ([4]; 62 g ai/ha): 0
O=C1NCC(c2cc(F)c(F)cc2F)C1C(=O)Nc1cccc(F)c1F (stereo not shown) [Compound 50] | 0 | 0 | 0 | 0 | 0 | 0 |  |  |  |  |  |  | 0 | 0 | 
O=C1NCC(c2ccc(Cl)c(Cl)c2)C1C(=O)Nc1ccccc1F (racemic) [Compound 14] |  |  |  |  |  |  | 0 | 0 | 0 |  |  |  |  |  | 
